# Like-named read-outs stand apart in the source and are kept apart here.
# Key:
# Type in all cases: in vivo
# [1] = tested on: Phytophthora infestans (the causal agent of tomato late blight); test: whole plant or invertebrate; conditions: for pest or weed control at 40 ppm: Phytophthora infestans, 144 h, read-out: Percent Disease Control, Test B
# [2] = tested on: Phytophthora infestans (the causal agent of tomato late blight); test: whole plant or invertebrate; conditions: for pest or weed control at 40 ppm: Phytophthora infestans, 96 h, read-out: Percent Disease Control, Test C
# [3] = tested on: Plasmopara vilicola (the causal agent of grape downy mildew); test: Test A: grape downy mildew, test suspension sprayed on grape seedlings after inoculation, visual disease rating; conditions: for pest or weed control at 40 ppm: Plasmopara, 144 h, read-out: Percent Disease Control, Test A
# Procedure, shortened: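 Compounds dissolved in acetone (3% of final volume), suspended in 50/50 acetone/water with 250 ppm Trem 014; 200 ppm to run-off equals 500 g/ha. Seedlings inoculated, held saturated at 20 °C 24 h, then sprayed; 5 days at 20 °C, 24 h saturated, then visual rating, 0–100% control versus untreated.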
# [4] = compounds without asterisk (application rate not given), 100 = 100% disease control, 0 = no control relative to the controls
structure (smiles),measurement,setting,value
Cc1c(C2(C)CC(c3csc(C4CCN(C(=O)Cn5nc(C(F)(F)F)cc5C)CC4)n3)=NO2)sc2cccc(Cl)c12 (stereo not drawn) [Compound 146],"Percent Disease Control, Test B",[1]; [4],100%
same,"Percent Disease Control, Test C",[2]; [4],53%
same,"Percent Disease Control, Test A",[3]; [4],83%
Cc1cc(C(F)(F)F)nn1CC(=O)N1CCC(c2nc(C3=NOC(C)(c4csc5ccccc45)C3)cs2)CC1 (stereo not drawn) [Compound 147],"Percent Disease Control, Test B",[1]; * tested at 40 ppm,100%
same,"Percent Disease Control, Test C",[2]; * tested at 40 ppm,95%
same,"Percent Disease Control, Test A",[3]; * tested at 40 ppm,100%
Cc1cc(C(F)(F)F)nn1CC(=O)N1CCC(c2nc(C3=NOC(c4ccsc4)C3)cs2)CC1 (stereo not drawn) [Compound 148],"Percent Disease Control, Test B",[1]; ** tested at l0 ppm,100%
same,"Percent Disease Control, Test C",[2]; ** tested at l0 ppm,99%
same,"Percent Disease Control, Test A",[3]; ** tested at l0 ppm,100%
"Cc1cc(C(F)(F)F)nn1CC(=O)N1CCN(c2nc(C3=NOC(c4ccccc4)C3)cs2)CC1 (stereo not drawn) [Compound 154, 1-[4-[4-(4,5-dihydro-5-phenyl-3-isoxazolyl)-2-thiazolyl]-1-piperazinyl]-2-[5-methyl-3-(trifluoromethyl)-1H-pyrazol-1-yl]ethanone]",pest or weed control at 40 ppm,[1],100%
same,pest or weed control at 40 ppm,[2],99%
same,pest or weed control at 40 ppm,[3]; * tested at 40 ppm,90%
CC(=O)OCC1(c2ccccc2)CC(c2csc(C3CCN(C(=O)Cn4nc(C(F)(F)F)cc4C)CC3)n2)=NO1 (stereo not drawn) [Compound 156],"Percent Disease Control, Test B",[1]; * tested at 40 ppm,100%
same,"Percent Disease Control, Test C",[2]; * tested at 40 ppm,99%
same,"Percent Disease Control, Test A",[3]; * tested at 40 ppm,100%
Cc1cc(C(F)(F)F)nn1CC(=O)N1CCC(c2nc(C3=NOC(CO)(c4ccccc4)C3)cs2)CC1 (stereo not drawn) [Compound 159],"Percent Disease Control, Test B",[1]; [4],100%
same,"Percent Disease Control, Test C",[2]; [4],99%
same,"Percent Disease Control, Test A",[3]; [4],94%
Cc1cc(C(F)(F)F)nn1CC(=O)N1CCC(c2nc(Cn3ccc(-c4ccccc4)n3)cs2)CC1 [Compound 160],"Percent Disease Control, Test B",[1]; [4],80%
same,"Percent Disease Control, Test C",[2]; [4],17%
same,"Percent Disease Control, Test A",[3]; [4],68%
"Cc1ccccc1[C@H]1CC(c2csc(C3CCN(C(=O)Cn4nc(C(F)(F)F)cc4C)CC3)n2)=NO1 [Compound 161, 1-[4-[4-[(5R)-4,5-dihydro-5-(2-methylphenyl)-3-isoxazolyl]-2-thiazolyl]-1-piperidinyl]-2-[5-methyl-3-(trifluoromethyl)-1H-pyrazol-1-yl]ethanone]",pest or weed control at 40 ppm,[1],100%
same,pest or weed control at 40 ppm,[2],99%
same,pest or weed control at 40 ppm,[3]; * tested at 40 ppm,100%
Cc1cc(C(F)(F)F)nn1CC(=O)N1CCC(c2nc(C3=NOC(c4cccs4)C3)cs2)CC1 (stereo not drawn) [Compound 162],"Percent Disease Control, Test B",[1]; * tested at 40 ppm,100%
same,"Percent Disease Control, Test C",[2]; * tested at 40 ppm,99%
same,"Percent Disease Control, Test A",[3]; * tested at 40 ppm,100%
Cc1cc(C)n(CC(=O)N2CCC(c3nc(C4=NO[C@]5(CCc6ccccc65)C4)cs3)CC2)n1 [Compound 165],"Percent Disease Control, Test B",[1]; ** tested at l0 ppm,100%
same,"Percent Disease Control, Test C",[2]; ** tested at l0 ppm,99%
same,"Percent Disease Control, Test A",[3]; ** tested at l0 ppm,99%
O=C(Cn1nc(Cl)cc1Cl)N1CCC(c2nc(C3=NOC(c4ccccc4)C3)cs2)CC1 (stereo not drawn) [Compound 166],"Percent Disease Control, Test B",[1]; ** tested at l0 ppm,100%
same,"Percent Disease Control, Test C",[2]; ** tested at l0 ppm,98%
same,"Percent Disease Control, Test A",[3]; ** tested at l0 ppm,100%
Cc1cc(C(F)(F)F)nn1CC(=O)N1CCC(c2nc(C3=NOC4(CCCCC4)C3)cs2)CC1 [Compound 169],"Percent Disease Control, Test B",[1]; [4],100%
same,"Percent Disease Control, Test C",[2]; [4],99%
same,"Percent Disease Control, Test A",[3]; [4],100%
Cc1cc(C(F)(F)F)nn1CC(=O)N1CCC(c2nc(C3=NOC4(CCOCC4)C3)cs2)CC1 [Compound 173],"Percent Disease Control, Test B",[1]; * tested at 40 ppm,100%
same,"Percent Disease Control, Test C",[2]; * tested at 40 ppm,99%
same,"Percent Disease Control, Test A",[3]; * tested at 40 ppm,100%
Cc1cc(C(F)(F)F)nn1CC(=O)N1CCC(c2nc(C3=NOC4(CCCCCC4)C3)cs2)CC1 [Compound 174],"Percent Disease Control, Test B",[1]; * tested at 40 ppm,100%
same,"Percent Disease Control, Test C",[2]; * tested at 40 ppm,99%
same,"Percent Disease Control, Test A",[3]; * tested at 40 ppm,100%
CC(=O)N1N=C(c2csc(C3CCN(C(=O)Cn4nc(C(F)(F)F)cc4C)CC3)n2)OC12CCCc1ccccc12 (stereo not drawn) [Compound 177],"Percent Disease Control, Test B",[1]; * tested at 40 ppm,100%
same,"Percent Disease Control, Test C",[2]; * tested at 40 ppm,99%
same,"Percent Disease Control, Test A",[3]; * tested at 40 ppm,93%
"Cc1cccc(C)c1[C@H]1CC(c2csc(C3CCN(C(=O)Cn4nc(C(F)(F)F)cc4C)CC3)n2)=NO1 [Compound 178, 1-[4-[4-[(5R)-5-(2,6-dimethylphenyl)-4,5-dihydro-3-isoxazolyl]-2-thiazolyl]-1-piperidinyl]-2-[5-methyl-3-(trifluoromethyl)-1H-pyrazol-1-yl]ethanone]",pest or weed control at 40 ppm,[1],100%
same,pest or weed control at 40 ppm,[2],99%
same,pest or weed control at 40 ppm,[3]; * tested at 40 ppm,100%
"Cc1cc(C)c([C@H]2CC(c3csc(C4CCN(C(=O)Cn5nc(C(F)(F)F)cc5C)CC4)n3)=NO2)c(C)c1 [Compound 179, 1-[4-[4-[(5R)-4,5-dihydro-5-(2,4,6-trimethylphenyl)-3-isoxazolyl]-2-thiazolyl]-1-piperidinyl]-2-[5-methyl-3-(trifluoromethyl)-1H-pyrazol-1-yl]ethanone]",pest or weed control at 40 ppm,[1],100%
same,pest or weed control at 40 ppm,[2],98%
same,pest or weed control at 40 ppm,[3]; * tested at 40 ppm,99%
Cc1cc(C(F)(F)F)nn1CC(=O)N1CCC(c2nc(C3=NOC(c4ccncc4)C3)cs2)CC1 (stereo not drawn) [Compound 180],"Percent Disease Control, Test B",[1]; [4],100%
same,"Percent Disease Control, Test C",[2]; [4],99%
same,"Percent Disease Control, Test A",[3]; [4],50%
CC(=O)N1N=C(c2csc(C3CCN(C(=O)Cn4nc(C(F)(F)F)cc4C)CC3)n2)OC1c1ccccc1 (stereo not drawn) [Compound 181],"Percent Disease Control, Test B",[1]; [4],100%
same,"Percent Disease Control, Test C",[2]; [4],97%
same,"Percent Disease Control, Test A",[3]; [4],80%
CC(=O)N1N=C(c2csc(C3CCN(C(=O)Cn4nc(C(F)(F)F)cc4C)CC3)n2)OC1(C)c1ccccc1 (stereo not drawn) [Compound 182],"Percent Disease Control, Test B",[1]; [4],100%
same,"Percent Disease Control, Test C",[2]; [4],97%
same,"Percent Disease Control, Test A",[3]; [4],99%
Cc1cc(C(F)(F)F)nn1CC(=O)N1CCC(c2nc(C3=NNC(c4ccccc4)C3)cs2)CC1 (stereo not drawn) [Compound 183],"Percent Disease Control, Test B",[1]; * tested at 40 ppm,92%
same,"Percent Disease Control, Test C",[2]; * tested at 40 ppm,33%
same,"Percent Disease Control, Test A",[3]; * tested at 40 ppm,92%
Cc1cc(C(F)(F)F)nn1CC(=O)N1CCC(c2nc(C3=NN(C)C(c4ccccc4)C3)cs2)CC1 (stereo not drawn) [Compound 184],"Percent Disease Control, Test B",[1]; * tested at 40 ppm,95%
same,"Percent Disease Control, Test C",[2]; * tested at 40 ppm,73%
same,"Percent Disease Control, Test A",[3]; * tested at 40 ppm,99%
"Cc1cc(C(F)(F)F)nn1CC(=O)N1CCC(c2nc(C3=NO[C@]4(COc5ccccc54)C3)cs2)CC1 [Compound 185, 2-[5-methyl-3-(trifluoromethyl)-1H-pyrazol-1-yl]-1-[4-[4-(3R)-spiro[benzofuran-3(2H),5′(4′H)-isoxazol]-3′-yl-2-thiazolyl]-1-piperidinyl]ethanone]",pest or weed control at 40 ppm,[1],100%
same,pest or weed control at 40 ppm,[2],98%
same,pest or weed control at 40 ppm,[3]; * tested at 40 ppm,100%
Cc1cc(C(F)(F)F)nn1CC(=O)N1CCC(c2nc(C3=NOC(N4CCCC4=O)C3)cs2)CC1 (stereo not drawn) [Compound 188],"Percent Disease Control, Test B",[1]; * tested at 40 ppm,100%
same,"Percent Disease Control, Test C",[2]; * tested at 40 ppm,99%
same,"Percent Disease Control, Test A",[3]; * tested at 40 ppm,99%
Cc1cc(C(F)(F)F)nn1CC(=O)N1CCC(c2nc(C3=NOC(c4ccccc4Br)C3)cs2)CC1 (stereo not drawn) [Compound 189],"Percent Disease Control, Test B",[1]; * tested at 40 ppm,100%
same,"Percent Disease Control, Test C",[2]; * tested at 40 ppm,99%
same,"Percent Disease Control, Test A",[3]; * tested at 40 ppm,100%
Cc1cc(C(F)(F)F)nn1CC(=O)N1CCC(c2nc(CN3C(=O)c4ccccc4C3=O)cs2)CC1 [Compound 191],"Percent Disease Control, Test B",[1]; [4],100%
same,"Percent Disease Control, Test C",[2]; [4],99%
same,"Percent Disease Control, Test A",[3]; [4],99%
Cc1cc(C(F)(F)F)nn1CC(=O)N1CCC(c2nc(C3=NOC4(CCCCc5ccccc54)C3)cs2)CC1 (stereo not drawn) [Compound 192],"Percent Disease Control, Test B",[1]; * tested at 40 ppm,100%
same,"Percent Disease Control, Test C",[2]; * tested at 40 ppm,99%
same,"Percent Disease Control, Test A",[3]; * tested at 40 ppm,99%
Cc1cc(C(F)(F)F)nn1CC(=O)N1CCC(c2nc(C3=NOC4(CCC4)C3)cs2)CC1 [Compound 193],"Percent Disease Control, Test B",[1]; * tested at 40 ppm,100%
same,"Percent Disease Control, Test C",[2]; * tested at 40 ppm,99%
same,"Percent Disease Control, Test A",[3]; * tested at 40 ppm,100%
Cc1cc(C(F)(F)F)nn1CC(=O)N1CCC(c2nc(C3=NOC4(CCN(C(=O)OC(C)(C)C)CC4)C3)cs2)CC1 [Compound 194],"Percent Disease Control, Test B",[1]; * tested at 40 ppm,100%
same,"Percent Disease Control, Test C",[2]; * tested at 40 ppm,99%
same,"Percent Disease Control, Test A",[3]; * tested at 40 ppm,94%
Cc1cc(C(F)(F)F)nn1CC(=O)N1CCC(c2nc(C3=NOC4(CCNCC4)C3)cs2)CC1 [Compound 195],"Percent Disease Control, Test B",[1]; [4],92%
same,"Percent Disease Control, Test C",[2]; [4],80%
same,"Percent Disease Control, Test A",[3]; [4],48%
CC(=O)N1CCC2(CC1)CC(c1csc(C3CCN(C(=O)Cn4nc(C(F)(F)F)cc4C)CC3)n1)=NO2 [Compound 196],"Percent Disease Control, Test B",[1]; * tested at 40 ppm,100%
same,"Percent Disease Control, Test C",[2]; * tested at 40 ppm,99%
same,"Percent Disease Control, Test A",[3]; * tested at 40 ppm,99%

# From patent publication US9920030B2 (priority 2006, dated 2018)
